Experimental data: patent US12173039B1, “TPL2 inhibiting agents, uses thereof, and detection of TPL2” (Washington University, priority 2021, dated 2024)

Tested on: NF-κB reporter activity
Experiment: NF-κB luciferase reporter assay
Type: cell-based, human
Settings: KRAS-mutant PDAC cells (PANC-1); serial dilutions from 20 μM; 18 hours
Description: Cells stably expressing plasmid encoding serum-response-element (SRE) or NFKB promoter driven Firefly luciferase and constitutive Renilla luciferase were seeded at equal density per well and treatment was initiated the next day for 16-24 duration. Alternatively, 293T reporter cells were transfected in duplicate or triplicate with 1 μg of appropriate plasmid DNA. Medium was replaced 16-18 hours later and at 48 hours post-transfection reporter activity was measured using Dual-Glo® Luciferase Assay System. Data was acquired using SpectraMax i3Microplate Reader and analysis was performed by calculating ratio of firefly:renilla. Values were normalized to control and graphed using GraphPad Prism v7/8 software.

## CC[C@@H]1[C@H](F)C(=O)N[C@@H]1COc1nccc2cc(C(N)=O)c(OC)cc12 [PF06650833, 1-(((2S,3S,4S)-3-ethyl-4-fluoro-5-oxopyrrolidin-2-yl)methoxy)-7-methoxyisoquinoline-6-carboxamide]
  NF-κB reporter activity: dose-dependently suppressed
